Values joined by “and” are separate entries in the source; they are usually repeats but may differ in a detail not shown here. Equal values may be shown once. “Also recorded” adds a separate entry of the source.
Columns and labels:
[1] = Zheng, et al. J. Pharm. Sci. 94(5), 2005; cited from earlier work
[2] = Sulfobutylether-7-β-cyclodextrin-quercetin aqueous composition: concentration and storage stability; assay type: physicochemical; conditions: quercetin at 10 mg/ml in water with sulfobutylether-7-β-cyclodextrin
Experimental: The flask is placed in an ice bath. […] Into the flask, 12 ml of 1 N sodium hydroxide is added over about 5 to 10 minutes. […] Into the flask is then added 10.5 ml of hydrochloric acid over 5 to 10 minutes at a slow enough rate to avoid precipitation. During the addition of the sodium hydroxide and the hydrochloric acid, the temperature is maintained at less than 20° C. DI water is then added to give total volume of 100 ml.

[3] = in vivo; cited from earlier work
[4] = Pharmacokinetic parameters of oral tacrolimus in the presence of Q-Captisol in healthy human volunteers; assay type: in vivo
Experimental: Tacrolimus-quercetin pharmacokinetic interactions are evaluated in N=15 healthy male subjects in an open-label, three-way crossover study of i.v. or oral quercetin-sulfobutylether-7-β-cyclodextrin (Q-Captisol) administered in combination with oral tacrolimus. Q-Captisol stock dosing solutions are prepared in aqueous Captisol (CyDex Inc.) using sodium hydroxide to facilitate dissolution. The final solution is adjusted to a final pH=7.5 to 8.0 using dilute sodium hydroxide or HCl. Stock solutions are aseptically filtered into a sterile IV bag and diluted to final volume with sterile saline. Q-Captisol oral dosing solutions are prepared by transferring the stock solution to a dosing cup and diluting to the final volume with deionized water. Oral tacrolimus is administered using commercially-available Prograf® capsules, with each capsule containing 1 mg tacrolimus and the excipient lactose.
In Period 1, all subjects received only a single dose of oral tacrolimus (1 mg).
In Period 2, all subjects received 3× daily oral doses of Q-Captisol on Days 12, 13, and 14. On Day 14, subjects received a single dose of oral tacrolimus (1 mg)
In Period 3, i.v. infusions of Q-Captisol are administered over 20 min via an indwelling cannula. Tacrolimus (1 mg) is administered orally 60 min after the start of the administration of the i.v. Q-Captisol dose.
The dosing regimen is as follows:
Period 1: Day 1: single oral dose of 1 mg tacrolimus
Period 2: Day 12: three times per day (Q 8 hrs) single oral dose of 100 mg Q-Captisol
Day 13: three times per day (Q 8 hrs) single oral dose of 100 mg Q-Captisol
Day 14: three times per day (Q 8 hrs) single oral dose of 100 mg Q-Captisol, with a single oral dose of 1 mg tacrolimus following the first dose of Q-Captisol.
Period 3: Day 25: single IV infusion of 100 mg Q-Captisol followed by a single oral dose of 1 mg tacrolimus.
In Period 1, blood samples for determination of tacrolimus pharmacokinetics are obtained at 0 min (pre-dose), then at 0.25, 0.5, 1, 2, 4, 8, 12, 24, 48, and 72 hr. Similar time periods are used to obtain tacrolimus blood sampled in Periods 2 and 3. Blood samples (0.4 ml) are withdrawn into K2-EDTA tubes from either an indwelling cannula or via venipuncture, then processed to yield plasma. Plasma samples are transferred to fresh tubes and frozen prior to shipment to the analytical laboratory.
(§1) The tacrolimus concentrations in plasma are determined using validated assay methods via an LC/MS/MS analytical technique. Major pharmacokinetic parameters, including area under the concentration versus time curve from time zero to the time of last measurable concentration (AUCt), area under the concentration versus time curve from time zero to infinite time (AUCinf), maximum observed concentration (Cmax), time to reach maximum observed blood or plasma concentration (Tmax), apparent terminal elimination rate constant (Kcl), clearance (CL), and half-life (T1/2), are determined from the plasma concentration data. Samples are analysed from all 15 subjects; one subject is a clear outlier and is excluded from the final analysis (N=14 subjects per dose regimen).

[5] = Pharmacokinetic parameters of i.v. tacrolimus in the presence of Q-Captisol in male Lewis rats; assay type: in vivo; conditions: rat, whole blood, iv, tacrolimus 1 mg/kg i.v.; for AUC / Cmax / Vd / clearance / half-life: male, Lewis, 1 mg/kg
Experimental: Male Lewis rats (Charles River Laboratories; 8-9 weeks old; mean weights 282-285 gm) are randomly assigned to treatment groups by a computerized body weight stratification procedure. Quercetin-Sulfobutylether-7-β-cyclodextrin (Q-Captisol) is prepared as a dosing solution using Captisol (B-cyclodextrin-sulfobutyl ether sodium salt; CyDex Inc.) along with 1 molar equivalent of sodium hydroxide. Q-Captisol is administered intraperitoneally (i.p.) at doses of 0, 25, 150, or 300 mg/kg (N=9 rats/dose). Tacrolimus (1 mg/kg i.v.) is dosed at 0.2 ml/kg directly from Prograf 5 mg/ml clinical dosing solutions. […] Whole blood is collected in EDTA tubes from the retro-orbital sinus under 60:40 CO2:O2 anesthesia at 9 time periods using N=3 animals per time period: 5, 15, and 30 min; 1, 2, 3, 6, 8, and 24 hr after administration of tacrolimus. To avoid excessive blood loss from individual animals, 3 blood samples per rat are collected at specified time intervals, so the final samples for analysis contained N=3 blood samples per time period. Whole blood samples are froze on dry ice and stored frozen at −80° C. prior to analysis.
Thawed whole blood (200 μl) is transferred to a separate glass tube with 100 μl of ascomycin (Internal Standard: 100 ng/ml in 10% methanol) and 20 μl of 10% methanol. Samples are treated with 400 μl of 0.1 M zinc sulfate and then 100 μl of acetonitrile to precipitate proteins. Samples are vortexed, then centrifuged at 4000 rpm for 5 min. 500 μl of supernatant is transferred to a clean glass tube containing 1000 μl of water and vortexed thoroughly. Mixtures are loaded onto a 100 mg C18 cartridge (SPE column) preconditioned with 1 ml of methanol, followed by 1 ml of water. The cartridge is washed 2× with 1 ml water, followed by 100 μl methanol. Tacrolimus and Internal Standard are eluted with 500 μl of methanol into an HPLC vial containing 1000 μl of 10 mM ammonium acetate. Samples are vortexed, then centrifuged at 4000 rpm for 10 min. A 10 μl aliquot of the clarified supernatant is injected directly onto LC/MS/MS for analysis. Calibration standards are prepared in blank rat whole blood at 1, 2, 5, 5, 10, 25, 50, 62.5, and 75 ng/ml and processed as described for the samples from rats dosed with tacrolimus.
as §1, with “[…] These changes” for “Samples”, “believed to be caused by drug re-distribution” for “analysed”, “non-targeted organs to systemic circulation.” for “all 15 subjects; one subject is a clear outlier and is excluded from the final analysis (N=14 subjects per dose regimen).”

[6] = tested on: rats; assay: Blood glucose levels in rats co-administered tacrolimus and flavonoid-sulfobutylether-7-β-cyclodextrin; assay type: in vivo, rat
Experimental: One set of 5 rats is treated from day 1 to day 25 with inert vehicle 2 intraperitoneally and treated from day 11 to day 25 with inert vehicle 1 intraperitoneally. […] A third set 5 of rats is treated from day 1 to day 25 intraperitoneally with tacrolimus (Prograf®) at 0.5 mg/kg, and treated from day 11 to day 25 with sulfobutylether-7-β-cyclodextrin (Q-Captisol) at 100 mg/kg. A fourth set 5 of rats is treated from day 1 to day 25 intraperitoneally with tacrolimus (Prograft®) at 0.5 mg/kg, and treated from day 11 to day 25 with fisetin-sulfobutylether-7-β-cyclodextrin (Fisetin-Captisol) at 85 mg/kg. The blood glucose level in the rats was measured on days 1, 10, 15, 20, and 25.

[7] = Fisetin-sulfobutylether-7-β-cyclodextrin solution: concentration and precipitation; assay type: physicochemical; conditions: approximately 1:2.5 molar ratio of fisetin to Captisol; pH 7.8-7.9
Experimental: Captisol™ (17.9 g) is dissolved in 55 ml of distilled (or deionized) water. Fisetin (anhydrous) (965 mg) is then added to the above solution. The mixture is stirred vigorously followed by sonication if necessary to break up any clumps so that a homogeneous suspension is obtained.
While stirring vigorously, a 1 N NaOH solution (12.0 ml) is added slowly and for the formation of the fisetin-Captisol inclusion complex. The resulting solution will be at about pH 12.5 and may have an orange-brown color. The solution is not kept long at this pH, and is quickly neutralized in the following step.
While stirring, add 1N HCl solution (9 ml) dropwise to attain pH to 7.8-7.9. The final solution may be light-yellow to light orange in color. In some cases, the pH can be brought to below pH 7.8. […] Add water to a final volume of 100 ml.
This solution will contain approximately a 1:2.5 molar ratio of fisetin to Captisol. This procedure is for preparing an approximately 9.47 mg/ml fisetin solution. In some cases, the solution can be further diluted to make a solution for injection or for oral administration, for example, by diluting with either 0.9% saline solution and/or with a solution containing dextrose.

[8] = Period 1: single oral dose 1 mg tacrolimus alone
[9] = Period 2: 1 mg oral tacrolimus + Q-Captisol po 100 mg three times per day Days 12-14
[10] = male, plasma, Period 1: single oral dose 1 mg tacrolimus alone
[11] = male, plasma, Period 2: 1 mg oral tacrolimus + Q-Captisol po 100 mg three times per day Days 12-14
[12] = male, plasma, Period 3: 1 mg oral tacrolimus after single IV infusion of 100 mg Q-Captisol
[13] = Q-Captisol Dose 0 mg/kg i.p. 30 min before
[14] = Q-Captisol Dose 25 mg/kg i.p. 30 min before
[15] = Q-Captisol Dose 150 mg/kg i.p. 30 min before
[16] = Q-Captisol Dose 300 mg/kg i.p. 30 min before
[17] = 5 rats, Prograf 0.5 mg/kg i.p. once daily from Day 1 + Vehicle 1 from Day 11
[18] = rats, Prograf 0.5 mg/kg i.p. + Vehicle 1
[19] = rats, Prograf 0.5 mg/kg i.p. once daily from Day 1 + Vehicle 1 from Day 11

O=c1c(O)c(-c2ccc(O)c(O)c2)oc2cc(O)cc(O)c12 [quercetin]
stability in aqueous solution as a function of pH [1]: stable below pH 3; also recorded: degradation of quercetin above pH 5 became apparent | stability without precipitation [2]: stable for more than two weeks without precipitation | serum half-life [3]: 19 to 25 h

C=CC[C@@H]1/C=C(\C)C[C@H](C)C[C@H](OC)[C@H]2O[C@@](O)(C(=O)C(=O)N3CCCC[C@H]3C(=O)O[C@H](/C(C)=C/[C@@H]3CC[C@@H](O)[C@H](OC)C3)[C@H](C)[C@@H](O)CC1=O)[C@H](C)C[C@@H]2OC [tacrolimus]
CL [4, 8]: 285 mL/h/kg | Vd [4, 8]: 8.5 L/kg | CL [4, 9]: 212 mL/h/kg | Vd [4, 9]: 8.4 L/kg | AUC [4, 10]: 48.8 ng·h/mL | Cmax [4, 10]: 5.8 ng/mL | Tmax [4, 10]: 1.56 h | half-life [4, 10]: 1250 min | AUC [4, 11]: 65.7 ng·h/mL | Cmax [4, 11]: 6.5 ng/mL | Tmax [4, 11]: 1.28 h | half-life [4, 11]: 1660 min | AUC [4, 12]: 56.3 ng·h/mL | Cmax [4, 12]: 6.4 ng/mL | Tmax [4, 12]: 1.55 h | clearance [4, 12]: 4.08 mL/min/kg | half-life [4, 12]: 1190 min | Vd ([4]; male, plasma, Period 3: 1 mg oral tacrolimus after single IV infusion of 100 mg Q-Captisol, read-out: Vd): 7.1 L/kg | AUC [5, 13]: 645 ng·h/mL | Cmax [5, 13]: 418 ng/mL | Vd [5, 13]: 18.6 L/kg | clearance [5, 13]: 22.9 mL/min/kg | half-life [5, 13]: 564 min | AUC [5, 14]: 635 ng·h/mL | Cmax [5, 14]: 426 ng/mL | Vd [5, 14]: 16 L/kg | clearance [5, 14]: 23.3 mL/min/kg | half-life [5, 14]: 474 min | AUC [5, 15]: 980 ng·h/mL | Cmax [5, 15]: 781 ng/mL | Vd [5, 15]: 10.9 L/kg | clearance [5, 15]: 15.5 mL/min/kg | half-life [5, 15]: 486 min | AUC [5, 16]: 1240 ng·h/mL | Cmax [5, 16]: 877 ng/mL | Vd [5, 16]: 8.2 L/kg | clearance [5, 16]: 12.2 mL/min/kg | half-life [5, 16]: 462 min | Tmax [5, 15]: 4.98 min | Blood glucose Day 1, Mean [6, 17]: 1.27 g/L | Blood glucose Day 10, Mean [6, 17]: 1.49 g/L | Blood glucose Day 15, Mean [6, 17]: 2.54 g/L | Blood glucose Day 20, Mean [6, 17]: 2.93 g/L | Blood glucose Day 25, Mean [6, 17]: 2.55 g/L | Blood glucose, Mean change from Day 1, Day 10 [6, 18]: +0.22 g/l | Blood glucose, Mean change from Day 1, Day 15 [6, 18]: +1.27 g/l | Blood glucose, Mean change from Day 1, Day 20 [6, 18]: +1.66 g/l | Blood glucose, Mean change from Day 1, Day 25 [6, 18]: +1.28 g/l | Blood glucose, Mean change from all vehicle control, Day 1 [6, 18]: -0.10 g/L | Blood glucose, Mean change from all vehicle control, Day 10 [6, 18]: +0.23 g/l | Blood glucose, Mean change from all vehicle control, Day 15 [6, 18]: +1.27 g/l | Blood glucose, Mean change from all vehicle control, Day 20 [6, 18]: +1.81 g/l | Blood glucose, Mean change from all vehicle control, Day 25 [6, 18]: +1.38 g/l | Blood glucose Day 1, individual rats [6, 19]: 1.16 g/l (2×) and 1.34 g/l and 1.22 g/l and 1.47 g/l | Blood glucose Day 10, individual rats [6, 19]: 1.30 g/L and 1.39 g/L and 1.40 g/L and 1.09 g/L and 2.25 g/L | Blood glucose Day 15, individual rats [6, 19]: 3.72 g/L and 1.67 g/L and 2.31 g/L and 1.97 g/L and 3.02 g/L | Blood glucose Day 20, individual rats [6, 19]: 2.79 g/L and 3.70 g/L and 2.97 g/L and 2.41 g/L and 2.77 g/L | Blood glucose Day 25, individual rats [6, 19]: 0.97 g/L and 3.16 g/L and 1.69 g/L and 2.98 g/L and 3.96 g/L

O=c1c(O)c(-c2ccc(O)c(O)c2)oc2cc(O)ccc12 [fisetin]
fisetin concentration of the solution [7]: approximately 9.47 mg/ml

Reference: patent US20090082400A1, “SOLUBLE PYRONE ANALOGS METHODS AND COMPOSITIONS” (priority 2007, published 2009)
